Laboratory results as given in PubChem BioAssay AID330 (DTP/NCI, 2004).
Several values for one entry are separate records, joined by “and”; a condition that tells them apart may be missing. Equal entries are not always repeated. Inconclusive results and toxic doses are left out. How the source made its calls: active means survival T/C of 150% or more; inactive means T/C below 125% in these data.

Test system: P388 leukemia ip, CD2F1 mice, survival T/C
Experiment: NCI In Vivo Anticancer Drug Screen. Data for tumor model P388 Leukemia (intraperitoneal) in CD2F1 (CDF1) mice
Details: endpoint: median survival time, higher = longer survival
Outline: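 Mice carrying the transplanted tumor received test compound or vehicle. Survival was recorded in each group, and the value is the treated-group measurement divided by that of the vehicle-treated control group.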

[1] = dose: 50.0 mg/kg/injection, schedule: Q01DX005 (ip), vehicle: saline with Tween-80
[2] = dose: 25.0 mg/kg/injection, schedule: Q01DX009 (ip), vehicle: Klucel (hydroxypropylcellulose) (HPC)
[3] = dose: 50.0 mg/kg/injection, schedule: Q01DX009 (ip), vehicle: Klucel (hydroxypropylcellulose) (HPC)
[4] = dose: 100.0 mg/kg/injection, schedule: Q01DX009 (ip), vehicle: Klucel (hydroxypropylcellulose) (HPC)
[5] = dose: 200.0 mg/kg/injection, schedule: Q01DX009 (ip), vehicle: Klucel (hydroxypropylcellulose) (HPC)
[6] = dose: 12.5 mg/kg/injection, schedule: Q01DX009 (ip), vehicle: saline with Tween-80
[7] = dose: 25.0 mg/kg/injection, schedule: Q01DX009 (ip), vehicle: saline with Tween-80
[8] = dose: 50.0 mg/kg/injection, schedule: Q01DX009 (ip), vehicle: saline with Tween-80
[9] = dose: 50.0 mg/kg/injection, schedule: Q01DX009 (ip), vehicle: saline
[10] = dose: 100.0 mg/kg/injection, schedule: Q01DX009 (ip), vehicle: saline
[11] = dose: 200.0 mg/kg/injection, schedule: Q01DX009 (ip), vehicle: saline
[12] = dose: 60.0 mg/kg/injection, schedule: Q01DX005 (ip), vehicle: Klucel (hydroxypropylcellulose) (HPC)
[13] = dose: 60.0 mg/kg/injection, schedule: Q01DX005 (ip), vehicle: saline with Tween-80
[14] = dose: 120.0 mg/kg/injection, schedule: Q01DX005 (ip), vehicle: saline with Tween-80
[15] = dose: 50.0 mg/kg/injection, schedule: Q01DX001 (ip), vehicle: Klucel (hydroxypropylcellulose) (HPC)
[16] = dose: 100.0 mg/kg/injection, schedule: Q01DX001 (ip), vehicle: Klucel (hydroxypropylcellulose) (HPC)
[17] = dose: 50.0 mg/kg/injection, schedule: Q01DX005 (ip), vehicle: Klucel (hydroxypropylcellulose) (HPC)
[18] = dose: 120.0 mg/kg/injection, schedule: Q01DX005 (ip), vehicle: Klucel (hydroxypropylcellulose) (HPC)
[19] = dose: 240.0 mg/kg/injection, schedule: Q01DX005 (ip), vehicle: Klucel (hydroxypropylcellulose) (HPC)

Measured: T/C

CCCCCCCCCCN(CCCCCCCCCC)C(=O)C(C)OC(C)=O (stereo not given)
inactive: [1] 98 % of control | dose: 100.0 mg/kg/injection, schedule: Q01DX005 (ip), vehicle: saline with Tween-80 101 % of control | dose: 200.0 mg/kg/injection, schedule: Q01DX005 (ip), vehicle: saline with Tween-80 104 % of control

COc1cccc2c1C(=O)c1c(O)c3c(c(O)c1C2=O)CC(O)(C1(C)OCC(C)(C)CO1)CC3OC1CC(N)C(O)C(C)O1 (stereo not given)
inactive: dose: 3.13 mg/kg/injection, schedule: Q04DX003 (ip), vehicle: water 104 % of control | dose: 6.25 mg/kg/injection, schedule: Q04DX003 (ip), vehicle: water 106 % of control | dose: 12.5 mg/kg/injection, schedule: Q04DX003 (ip), vehicle: water 111 % of control | dose: 25.0 mg/kg/injection, schedule: Q04DX003 (ip), vehicle: water 104 % of control | dose: 50.0 mg/kg/injection, schedule: Q04DX003 (ip), vehicle: water 95 % of control

CCCCCCCCCCCCN1CCS(=O)(=O)CC1
inactive: [2] 112 % of control | [3] 95 % of control | [4] 118 % of control | [5] 101 % of control

Oc1ccccc1/C=N/Nc1ccc2ccccc2n1
inactive: dose: 25.0 mg/kg/injection, schedule: Q04DX003 (ip), vehicle: saline 96 % of control | dose: 50.0 mg/kg/injection, schedule: Q04DX003 (ip), vehicle: saline 95 % of control | dose: 100.0 mg/kg/injection, schedule: Q04DX003 (ip), vehicle: saline 102 % of control | dose: 200.0 mg/kg/injection, schedule: Q04DX003 (ip), vehicle: saline 93 % of control

Cc1ccc([NH-])c(C(=O)O)c1.Cc1ccc([NH-])c(C(=O)O)c1.[Cu+2]
inactive: dose: 12.5 mg/kg/injection, schedule: Q01DX005 (ip), vehicle: saline with Tween-80 96 % of control | dose: 25.0 mg/kg/injection, schedule: Q01DX005 (ip), vehicle: saline with Tween-80 100 % of control | [1] 94 % of control

Cc1c(N)ccc(O)c1C
inactive: [6] 120 % of control | [7] 105 % of control | [8] 100 % of control

Cc1nc2nc3n(c(=O)c2nc1C)CCCS3
inactive: [9] 105 % of control | [10] 103 % of control | [11] 113 % of control

Nc1ccccc1SC1CCCCC1O (stereo not given)
inactive: dose: 25.0 mg/kg/injection, schedule: Q01DX009 (ip), vehicle: saline 101 % of control | [9] 97 % of control | [10] 97 % of control | [11] 102 % of control

CCCCOC(=O)/C=C(\I)C(=O)OCCCC
inactive: dose: 6.25 mg/kg/injection, schedule: Q01DX009 (ip), vehicle: saline with Tween-80 101 % of control and 110 % of control and 92 % of control | [6] 112 % of control and 114 % of control and 96 % of control | [7] 113 % of control and 120 % of control and 124 % of control | [8] 110 % of control and 111 % of control and 118 % of control

Nc1ccc(-c2cc3ccc(C4=NCCN4)cc3[nH]2)cc1
inactive: [12] 117 % of control

CNc1nc(OC)nc2c1cnn2C1CCCCO1 (stereo not given)
inactive: dose: 100.0 mg/kg/injection, schedule: Q04DX002 (ip), vehicle: saline with Tween-80 97 % of control | dose: 200.0 mg/kg/injection, schedule: Q04DX002 (ip), vehicle: saline with Tween-80 100 % of control | dose: 400.0 mg/kg/injection, schedule: Q04DX002 (ip), vehicle: saline with Tween-80 94 % of control

CN(C)CCCSc1c2ccccc2nc2cccc([N+](=O)[O-])c12
inactive: [13] 94 % of control | [14] 106 % of control

COC(=O)C(=O)c1c(C(=O)OC)nc2[nH]n(-c3ccccc3)c(=O)c2c1-c1cccc2ccccc12
inactive: dose: 30.0 mg/kg/injection, schedule: Q01DX005 (ip), vehicle: saline with Tween-80 100 % of control and 110 % of control | [13] 98 % of control and 100 % of control | [14] 91 % of control and 94 % of control

CNc1ccc(Cl)cc1SSc1cc(Cl)ccc1NC
inactive: [15] 100 % of control | [16] 100 % of control | dose: 200.0 mg/kg/injection, schedule: Q01DX001 (ip), vehicle: Klucel (hydroxypropylcellulose) (HPC) 100 % of control

O=Nc1ccc(O)c2ncccc12
inactive: [15] 111 % of control | [16] 121 % of control

O=[N+]([O-])c1cc[n+]([O-])c(Cl)c1
inactive: [2] 91 % of control | [3] 96 % of control | [4] 94 % of control | [5] 101 % of control

O=C(CBr)C1(Br)CCN(Cc2ccccc2)CC1
inactive: dose: 3.13 mg/kg/injection, schedule: Q01DX009 (ip), vehicle: Klucel (hydroxypropylcellulose) (HPC) 109 % of control | dose: 6.25 mg/kg/injection, schedule: Q01DX009 (ip), vehicle: Klucel (hydroxypropylcellulose) (HPC) 115 % of control | dose: 12.5 mg/kg/injection, schedule: Q01DX009 (ip), vehicle: Klucel (hydroxypropylcellulose) (HPC) 109 % of control

CC(=O)OCC12C(=O)CC(C)C3(CC(c4ccoc4)OC3=O)C1(C)CCCC21CO1 (stereo not given) (tested in a mixture with another compound)
inactive: dose: 12.0 mg/kg/injection, schedule: Q01DX005 (ip), vehicle: Klucel (hydroxypropylcellulose) (HPC) 94 % of control | dose: 24.0 mg/kg/injection, schedule: Q01DX005 (ip), vehicle: Klucel (hydroxypropylcellulose) (HPC) 92 % of control | dose: 48.0 mg/kg/injection, schedule: Q01DX005 (ip), vehicle: Klucel (hydroxypropylcellulose) (HPC) 91 % of control | dose: 96.0 mg/kg/injection, schedule: Q01DX005 (ip), vehicle: Klucel (hydroxypropylcellulose) (HPC) 100 % of control

COc1ccc(C(C)c2cc3c(cc2OC)OCO3)c(C)c1 (stereo not given)
inactive: [17] 116 % of control | dose: 100.0 mg/kg/injection, schedule: Q01DX005 (ip), vehicle: Klucel (hydroxypropylcellulose) (HPC) 92 % of control | dose: 200.0 mg/kg/injection, schedule: Q01DX005 (ip), vehicle: Klucel (hydroxypropylcellulose) (HPC) 119 % of control

CC(=O)Oc1ccc(N=Cc2cc3c(cc2[N+](=O)[O-])OCO3)cc1
inactive: dose: 12.5 mg/kg/injection, schedule: Q01DX009 (ip), vehicle: other 113 % of control | dose: 25.0 mg/kg/injection, schedule: Q01DX009 (ip), vehicle: other 117 % of control | dose: 50.0 mg/kg/injection, schedule: Q01DX009 (ip), vehicle: other 109 % of control | dose: 100.0 mg/kg/injection, schedule: Q01DX009 (ip), vehicle: other 93 % of control | dose: 200.0 mg/kg/injection, schedule: Q01DX009 (ip), vehicle: other 92 % of control | dose: 400.0 mg/kg/injection, schedule: Q01DX009 (ip), vehicle: other 96 % of control

CCc1nc(N)nc(N)c1-c1ccc(N(C)C)cc1
inactive: dose: 6.25 mg/kg/injection, schedule: Q01DX005 (ip), vehicle: Klucel (hydroxypropylcellulose) (HPC) 97 % of control | dose: 12.5 mg/kg/injection, schedule: Q01DX005 (ip), vehicle: Klucel (hydroxypropylcellulose) (HPC) 98 % of control | dose: 25.0 mg/kg/injection, schedule: Q01DX005 (ip), vehicle: Klucel (hydroxypropylcellulose) (HPC) 96 % of control | [17] 95 % of control

COC(=O)/C(=C/c1c[nH]c2ccccc12)NC=O
inactive: [12] 97 % of control | [18] 97 % of control | [19] 92 % of control

Cc1cc(-c2cc(C)nc(N)n2)nc(N)n1
inactive: dose: 60.0 mg/kg/injection, schedule: Q01DX005 (ip), vehicle: saline 100 % of control | dose: 120.0 mg/kg/injection, schedule: Q01DX005 (ip), vehicle: saline 100 % of control | dose: 240.0 mg/kg/injection, schedule: Q01DX005 (ip), vehicle: saline 108 % of control

O=C1C(Cl)=C(Nc2cccc3cc4ccccc4nc23)C(=O)c2ccccc21
inactive: dose: 5.0 mg/kg/injection, schedule: Q01DX009 (ip), vehicle: saline 104 % of control and 112 % of control | dose: 10.0 mg/kg/injection, schedule: Q01DX009 (ip), vehicle: saline 113 % of control and 114 % of control | dose: 20.0 mg/kg/injection, schedule: Q01DX009 (ip), vehicle: saline 104 % of control

c1ccc2c(c1)OCc1nccn1-2
inactive: [12] 99 % of control | [18] 100 % of control

c1cc2c(cc1CN1CCOCC1)Sc1cc(CN3CCOCC3)ccc1N2
inactive: [12] 96 % of control | [18] 89 % of control | [19] 92 % of control
